# Data: patent US4214091A, “Antibiotic No. 2-200 and process for producing thereof” (Chugai Seiyaku Kabushiki Kaisha, priority 1977, dated 1980)
# Like-named read-outs stand apart in the source and are kept apart here.
# Columns and labels:
# gram negative bacteria = test: antibacterial activity (general statement); type: cell-based
# [1] = test system: Serratia marrcescens FU-111; test: MIC by agar plate dilution method; type: cell-based; settings: FU111, 24 h, read-out: Minimum inhibitory concentration
# Procedure: (§1) The test organisms were incubated by agar plate dilution method at 37° C. for 24 hours, after which their growth was observed. The test organisms were incubated on an NB medium (product of Eiken Kagaku) at 37° C. overnight, and each culture obtained was diluted 10^3 - to 10^4 -fold and stamped on an agar plate. The following agar plate media were used:
# (§2) NA: nutrient agar (product of Eiken Kagaku)
# (§3) NA+G6P: glucose-6-phosphoric acid (50 μg/ml) plus nutrient agar
# (§4) Anti-3A: antibiotic medium No. 3 agar (product of Difco)
# (§5) MHA: Mueller Hinton Agar (product of Eiken Kagaku)
# [2] = test system: Salmonella enteritidis T-1; test: MIC by agar plate dilution method; type: cell-based; settings: Salmonella enterica, 24 h, 37° C., read-out: Minimum inhibitory concentration
# Procedure: as §1, §2, §3, §4, §5
# Proteus mirabilis 1287 = test: MIC by agar plate dilution method; type: cell-based; settings: 37° C., 24 hours
# Procedure: as §1, §2, §3, §4, §5
# Sarcina lutea = test: MIC by agar plate dilution method; type: cell-based; settings: Micrococcus luteus
# Procedure: as §1, §2, §3, §4, §5
# Bacteroides fragilis V-7 = test: MIC, GAM agar, anaerobic; type: cell-based; settings: V7, 40 h, read-out: Minimum inhibitory concentration (MIC)
# Procedure: (§6) Minimum inhibitory concentration (MIC) for gram
# (§7) Note: incubated at 37° C. for 40 hours on GAM agar medium (product
# (§8) of Nippon Seiyaku) using anaerobic incubator. Inoculated with 10^6
# Bacteroides fragilis V-6 = test: MIC, GAM agar, anaerobic; type: cell-based; settings: V6, 40 h, read-out: Minimum inhibitory concentration (MIC)
# Procedure: as §6, §7, §8
# [3] = test system: Fusobacterium necroforum S-45; test: MIC, GAM agar, anaerobic; type: cell-based; settings: S45, 37° C., 40 hours, inoculum 10^6/ML, read-out: Minimum inhibitory concentration (MIC)
# Procedure: as §6, §7, §8
# [4] = test system: Fusobacterium glutinosum 1006; test: MIC, GAM agar, anaerobic; type: cell-based; settings: 37° C., 40 hours, inoculum 10^6/ML, read-out: Minimum inhibitory concentration (MIC)
# Procedure: as §6, §7, §8
# Bacteroides fragilis V-8 = test: MIC, GAM agar, anaerobic; type: cell-based; settings: V8, 40 h, read-out: Minimum inhibitory concentration (MIC)
# Procedure: as §6, §7, §8
# [5] = test system: bacteria of genus Serratia; test: antibacterial activity (general statement); type: cell-based
# [6] = acute toxicity, single administration; settings: mouse, in vivo, pH 7, read-out: median lethal dose (LD50)
# Procedure: The crystal of the antibiotic No. 2-200 obtained in Example 4 was floated in sterile distilled water, mixed with 5% caustic soda to adjust the pH to 7.0, and dissolved to make a solution. The solution was adminstered to 5-week-old ddY male mice to examine its actuate toxicity as well as delayed toxicity. During 10 days that followed the administration, the weight of each mouse, its food intake and water intake were measured.
# [7] = test system: mutant of Pseudomonus aeroginosa, for example, G-75, M-57740; test: growth inhibition of β-lactam-sensitive mutant; type: cell-based; settings: mutant sensitive to a β-lactam antibiotic
# Description: The present inventors further continued their studies and succeeded in isolating from a culture of actinomycete an effective substance as a crystal, which was subjected to X-ray diffractometry to determine its structure. […] This invention is a development of studies based on these findings.
# Solubility in solvents = type: physicochemical
# mammals = settings: in vivo
smiles,measurement,setting,value
"C=CC(C)=CC1(C)SC(=O)C(C)=C1O (single isomer, unassigned) [No. 2-200]",antibacterial activity to gram negative bacteria,gram negative bacteria,exhibits antibacterial activity
same,MIC,"[1]; Anti-3A, 37° C., 24 hours",25 µg/mL
same,MIC,"[1]; NA + G6P (50 μg/ml), 37° C., 24 hours",50 µg/mL
same,MIC,"[1]; NA, 37° C., 24 hours",50 µg/mL
same,MIC,[1],6.25 µg/mL
same,MIC,[2]; Anti-3A,3.12 µg/mL
same,MIC,[2]; MHA,3.12 µg/mL
same,MIC,[2]; NA + G6P (50 μg/ml),6.25 µg/mL
same,MIC,[2]; NA,6.25 µg/mL
same,Minimum inhibitory concentration,Proteus mirabilis 1287; Anti-3A,50 µg/mL
same,Minimum inhibitory concentration,Proteus mirabilis 1287; MHA,50 µg/mL
same,Minimum inhibitory concentration,Proteus mirabilis 1287; NA + G6P (50 μg/ml),50 µg/mL
same,MIC,"Proteus mirabilis 1287; Proteus mirabilis, 1287, NA, read-out: Minimum inhibitory concentration",50 µg/mL
same,MIC,"Sarcina lutea; 24 h, read-out: Minimum inhibitory concentration, Anti-3A, 37° C.",12.5 µg/mL
same,MIC,"Sarcina lutea; 24 h, read-out: Minimum inhibitory concentration, NA + G6P (50 μg/ml), 37° C.",12.5 µg/mL
same,MIC,"Sarcina lutea; 24 h, read-out: Minimum inhibitory concentration, NA, 37° C.",12.5 µg/mL
same,MIC,"Sarcina lutea; MHA, 37° C., 24 hours, read-out: Minimum inhibitory concentration",25 µg/mL
same,MIC,Bacteroides fragilis V-7,12.5 µg/mL
same,MIC,Bacteroides fragilis V-6,3.12 µg/mL
same,MIC,[3],3.12 µg/mL
same,MIC,[4],100 µg/mL
same,MIC,Bacteroides fragilis V-8,6.25 µg/mL
same,antibacterial activity to bacteria of genus Serratia,[5],particularly strong antibacterial activity
same,LD50 at 240 h,[6]; ip,810 mg/kg
same,LD50 at 240 h,[6]; iv,705 mg/kg
same,inhibition of growth,[7],strongly inhibits the growth
same,solubility,Solubility in solvents; acetone,easily soluble
same,solubility,Solubility in solvents; alkaline water,easily soluble
same,solubility,Solubility in solvents; ethyl acetate,easily soluble
same,solubility,Solubility in solvents; methanol,easily soluble
same,solubility,Solubility in solvents; neutral to acidic water,slightly soluble
same,delayed toxicity (general statement),mammals,no delayed toxicity
